Measured values from PMC5770433, “A new group of synthetic phenolic-containing amphiphilic molecules for multipurpose applications: Physico-chemical characterization and cell-toxicity study” (Scientific Reports, 2018).
Several values for one entry are separate records, joined by “and”; a condition that tells them apart may be missing. Equal values may be shown once.

Assays:
[1] = Temp-ramp FT-IR determination of lateral lipid chain packing; type: physicochemical; settings: FT-IR CH2 rocking region, 28 °C
Experimental: Fourier transform infrared spectroscopy (FT-IR) was applied to determine the molecular organization of the amphiphilic lipids. Spectra were recorded using an ATR-FTIR (PIKE, Madison, WI; Bruker, Ettlingen, Germany). The synthesized compounds were dried under low pressure over night, and then pressed onto a ZnSe ATR crystal mounted in a trough plate. […] Spectra were collected with a spectral resolution of 4 cm^−1 with 8 scans over the range of 3500–650 cm^−1. The FTIR spectra were analyzed by using MicroCal Origin 9.0 software.

[2] = Critical micelle concentration by pyrene fluorescence method; type: physicochemical; settings: in water
Experimental: Critical Micelle Concentration (CMC) values of the synthetic compounds were determined by pyrene fluorescence method[28] using a Varian Cary Eclipse Fluorescence spectrometer (Agilent Technology, California, USA). The respective solutions were prepared using water previously saturated with pyrene (1 µM final concentration) in different concentrations (0.000001, 0.00001, 0.0001, 0.001, 0.01, 0.1, 1, 2.5, 5, 10, 15, 20 mM). Emission spectra of pyrene were obtained by exciting the samples at 334 nm. The fluorescence intensity ratio of I1/I3 (I1 = 373 nm, I3 = 383 nm) was plotted against sample solution concentration. The concentration at which the first break occurs was referred as the CMC value of the compound in water. Measurements were determined in triplicate.

[3] = Creaming stability (creaming index) of 30% fish oil-in-water emulsions; type: physicochemical; settings: 30% fish oil-in-water emulsion, storage at 5 °C, 7 days
Experimental: (§1) The synthetic compounds were evaluated as emulsifiers for fish oil-in-water emulsions and compared to commercial DATEM. Emulsions consisting of 30.0% fish oil were prepared using 1.5 mL (0.1 M) of emulsifier solutions in phosphate buffer (pH 7.0). Coarse emulsions were first created by homogenization of lipid and aqueous phases (PRO250, PRO Scientific, Oxford, USA) at high speed for two minutes at room temperature. Further reduction particle size was achieved by use of a probe sonicator (Branson sonifier 250, Branson ultrasonics, Danbury, US) for a period of 3 min.
To examine their creaming stability, duplicate emulsions were transferred to clear, screw-capped 15 mL vials (diameter 1.8 cm) and stored at 5 °C. By aid of daily digital photographs, the phase separation in each emulsion was monitored over 7 days. The extent of creaming was characterized by the creaming index (CI) according to Equation (2), where HA is the height of the lower, aqueous phase, and HE is the total height of emulsion[30]).1 %CI=HA/HE×100

[4] = Lipid oxidation in fish oil-in-water emulsions (TBARS assay); settings: relative to emulsions with commercial DATEM, after 7 days (1 week) of storage
Experimental: as §1
The ability of the new emulsifiers to inhibit lipid oxidation in emulsions was evaluated using Thiobarbituric acid-reactive species (TBARS) assay. TBARS were used to measure the formation of malondialdehyde, a major product of lipid oxidation, in emulsions after one week of storage. A solution of TCA-TBA-HCl was prepared by mixing 15 g of TCA, 375 mg TBA, 1.76 ml 12 N HCl, and 82.9 ml water. […] of this solution was mixed with 20 µl of the emulsion sample previously in 1 ml of distilled water. Thereafter, the mixture was heated at 100 °C for 15 min, cooled to room temperature within 10 min under a running tap water, and centrifuged at 2000×g for 15 min[22]. TBA formed colored complexes with the secondary oxidation products, which were detected in a UV-visible spectrophotometer (Cary 50Bio, Varian, Australia) at 532 nm. The relative degree of oxidation in each emulsion was calculated with respect to the degree of oxidation in emulsions with commercial DATEM, according to Equation (3), where AS is the absorbance of samples with added stabilizer, and A0 is the absorbance of samples with no added emulsifier. Measurements were taken on duplicate emulsion samples.2 Oxidation(%)=AS/AO×100

[5] = Atomic force microscopy of Langmuir-Blodgett films on mica; type: physicochemical; settings: film transferred to mica at ~22 mN/m
Experimental: (§2) Langmuir-Blodgett studies was carried out for compound C14, being the ultimate compound with both surface active and antioxidant properties, according to the method of Correa et al.[29] with slight modications. Experiments were performed in aqueous solutions at neutral pH. Briefly, 20 µl of 2 mg/mL solution of C14 in chloroform:methanol (9:1, v/v) was applied to the aqueous phase and allowed to evaporate for a period of 20 min. Thereafter, the barriers were compressed at a constant rate of ~9 Å/ (chain min) until film collapsed. After stable conditions were attained, deposition of the corresponding film was carried out onto a hydrophilic mica support at a pressure just before film collapsed. The deposited monolayers on mica were left to air dry overnight. AFM images were acquired at ambient conditions by air tapping mode using a silicon tip on a micro cantilever (Olympus Inc., Japan) with a spring constant of 26 N/m and resonant frequency of 300 kHz. All measurements were performed in the center of the sample. Analyses were done in duplicates.

[6] = Langmuir isotherm of monolayer; type: physicochemical; settings: aqueous subphase, neutral pH
Experimental: as §2

CCCCCCCC(=O)OCC(O)COC(=O)C(CC(=O)O)OC(=O)/C=C/c1ccc(OC)c(OC)c1 (stereo not shown) [C8]
Lipid packing mode [1]: Hexagonal
Critical micelle concentration (CMC) [2]: 10 mM
Creaming index (CI) [3]: 15.1%

CCCCCCCCCC(=O)OCC(O)COC(=O)C(CC(=O)O)OC(=O)/C=C/c1ccc(OC)c(OC)c1 (stereo not shown) [C10]
Lipid packing mode [1]: Hexagonal
Critical micelle concentration (CMC) [2]: 5 mM
Creaming index (CI) [3]: 10.35%

CCCCCCCCCCCC(=O)OCC(O)COC(=O)C(CC(=O)O)OC(=O)/C=C/c1ccc(OC)c(OC)c1 (stereo not shown) [C12]
Lipid packing mode [1]: Hexagonal
Creaming index (CI) [3]: 0%

CCCCCCCCCCCC(=O)OCC(O)COC(=O)C(CC(=O)O)OC(=O)/C=C/c1ccc(O)c(O)c1 (stereo not shown) [C12a]
Lipid packing mode [1]: Hexagonal
Relative oxidation in emulsions (as TBARS) [4]: 25.72 ± 0.03%
Creaming index (CI) [3]: 0%

CCCCCCCCCCCCCC(=O)OCC(O)COC(=O)C(CC(=O)O)OC(=O)/C=C/c1ccc(OC)c(OC)c1 (stereo not shown) [C14]
Double-layer film thickness [5]: 5.2 nm and 6.7 nm
Monolayer film thickness [5]: 2.3 nm
Lipid packing mode [1]: Hexagonal
Surface pressure at monolayer collapse [6]: 39 mN/m
Creaming index (CI) [3]: 0%

CCCCCCCCCCCCCC(=O)OCC(O)COC(=O)C(CC(=O)O)OC(=O)/C=C/c1ccc(O)c(O)c1 (stereo not shown) [C14a]
Lipid packing mode [1]: Hexagonal
Relative oxidation in emulsions (as TBARS) [4]: 19.26 ± 0.05%
Creaming index (CI) [3]: 0%

CCCCCCCCCCCCCCCC(=O)OCC(O)COC(=O)C(CC(=O)O)OC(=O)/C=C/c1ccc(OC)c(OC)c1 (stereo not shown) [C16]
Lipid packing mode [1]: Hexagonal
Creaming index (CI) [3]: 0%

CCCCCCCCCCCCCCCC(=O)OCC(O)COC(=O)C(CC(=O)O)OC(=O)/C=C/c1ccc(O)c(O)c1 (stereo not shown) [C16a]
Lipid packing mode [1]: Hexagonal
Relative oxidation in emulsions (as TBARS) [4]: 39.04 ± 0.02%
Creaming index (CI) [3]: 0%

CCCCCCCCCCCCCCCCCC(=O)OCC(O)COC(=O)C(CC(=O)O)OC(=O)/C=C/c1ccc(OC)c(OC)c1 (stereo not shown) [C18]
melting point: 38 °C
Lipid packing mode [1]: Orthorhombic
Critical micelle concentration (CMC) [2]: 0.01 mM
Creaming index (CI) [3]: 37.2%
